A word on the IC50: it is the midpoint of a concentration-inhibition curve.

Molecules are shown by their SMILES. Where two headings read alike, the source gives them in different places.

One test deals with memapsin 2 (Homo sapiens, UniProt P56817). Kind of test: Inhibition of memapsin 2 beta-secretase activity (fluorogenic substrate FS-2). Format: biochemical. As to conditions: memapsin 2, pH 4, 37° C., fluorogenic substrate FS-2; read-out: M2Ki. An outline of the steps: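 Kinetic fluorogenic assay: hydrolysis of the MCA/DNP-labelled APP Swedish-variant peptide FS-2 monitored as fluorescence rise at 37° C, pH 4, after 20 min enzyme–compound preincubation. Relative rates fitted with a tight-binding inhibitor model.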

Test [1] has as its system Aβ production in Chinese hamster ovary cells that over-express human APP695 with the London and Swedish mutations. Briefly: Cellular Aβ IC50 determination (Aβ40 sandwich ELISA). As to conditions: Cricetulus griseus. It is filed as cell-based. The essentials: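 Aβ40 in media quantified by sandwich ELISA, normalized to control incubations and fitted with a 4-parameter IC50 model. Compounds dosed to a final concentration near 4 μM (0.4% DMSO) on CHO cells expressing human APP695 (London and Swedish mutants) seeded at 10% confluency.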
In general terms: ELISA stands for enzyme-linked immunosorbent assay.

[2] abbreviates: cellular Aβ production, read-out: IC50.

memapsin 2, sequence (P56817 46-501): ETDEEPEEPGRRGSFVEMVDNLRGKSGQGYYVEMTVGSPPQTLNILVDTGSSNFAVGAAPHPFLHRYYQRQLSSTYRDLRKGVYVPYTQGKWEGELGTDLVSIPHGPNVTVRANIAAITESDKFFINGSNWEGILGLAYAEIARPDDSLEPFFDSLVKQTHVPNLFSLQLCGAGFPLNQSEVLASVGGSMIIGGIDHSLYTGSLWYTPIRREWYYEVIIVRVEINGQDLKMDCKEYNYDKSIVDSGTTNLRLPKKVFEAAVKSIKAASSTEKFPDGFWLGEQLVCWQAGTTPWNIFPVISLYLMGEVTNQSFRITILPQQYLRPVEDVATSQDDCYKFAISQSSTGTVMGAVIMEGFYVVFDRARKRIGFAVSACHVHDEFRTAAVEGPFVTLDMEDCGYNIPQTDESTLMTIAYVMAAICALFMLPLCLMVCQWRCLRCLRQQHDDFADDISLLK

Consider `Cc1csc(CN(C)C(=O)c2cccc(C(=O)N[C@@H](Cc3ccccc3)[C@H](O)CNCc3cc(C(C)C)cc(S(=O)(=O)C(C)C)c3)c2)n1` [Compound 229, N1-((2S,3R)-3-hydroxy-4-(3-isopropyl-5-(isopropylsulfonyl)benzylamino)-1-phenylbutan-2-yl)-N3-methyl-N3-((4-methylthiazol-2-yl)methyl)isophthalamide], for which the Ki on memapsin 2 is < 300 nM. Besides, in test [1] (setting [2]), the IC50 is > 5000 nM.
As to `COc1cccc(CNC[C@@H](O)[C@H](Cc2ccccc2)NC(=O)c2cc(C(=O)N(C)Cc3nc(C)cs3)cc(N3CCCCC3)c2)c1` [Compound 230, N1-((2S,3R)-3-hydroxy-4-(3-methoxybenzylamino)-1-phenylbutan-2-yl)-N3-methyl-N3-((4-methylthiazol-2-yl)methyl)-5-(piperidin-1-yl)isophthalamide], the Ki at memapsin 2 is < 300 nM. The concentration for half-maximal inhibition (IC50) in test [1] (setting [2]) is < 1000 nM.
For `Cc1csc(CN(C)C(=O)c2cc(C(=O)N[C@@H](Cc3ccccc3)[C@H](O)CNCc3cncc(C(C)C)c3)cc(N3CCCCC3)c2)n1` [Compound 231, N1-((2S,3R)-3-hydroxy-4-((5-isopropylpyridin-3-yl)methylamino)-1-phenylbutan-2-yl)-N3-methyl-N3-((4-methylthiazol-2-yl)methyl)-5-(piperidin-1-yl)isophthalamide], the Ki on memapsin 2 is < 300 nM. In test [1] (setting [2]), the IC50 is > 5000 nM.
The like results for `Cc1cc(C(=O)N[C@@H](Cc2ccccc2)[C@H](O)CNCc2cccc(C(F)(F)F)c2)cc(C(=O)N(C)Cc2nc(C)cs2)c1` [Compound 232, N1-((2S,3R)-3-hydroxy-1-phenyl-4-(3-(trifluoromethyl)benzylamino)butan-2-yl)-N3,5-dimethyl-N3-((4-methylthiazol-2-yl)methyl)isophthalamide] were, in that order, < 300 nM and < 1000 nM.
For the compound `Cc1csc(CN(C)C(=O)c2cc(C(=O)N[C@@H](Cc3ccccc3)[C@H](O)CNCc3cccc(C(F)(F)F)c3)cc(N3CCCC3=O)c2)n1` [Compound 233, N1-((2S,3R)-3-hydroxy-1-phenyl-4-(3-(trifluoromethyl)benzylamino)butan-2-yl)-N3-methyl-N3-((4-methylthiazol-2-yl)methyl)-5-(2-oxopyrrolidin-1-yl)isophthalamide], the Ki at memapsin 2 is < 300 nM. For the same compound, the IC50 in test [1] (setting [2]) was < 1000 nM.
In the case of `Cc1csc(CN(C)C(=O)c2cccc(C(=O)N[C@@H](Cc3ccccc3)[C@H](O)CNCc3cc(OC(=O)N4CCOCC4)cc(C(C)C)c3)c2)n1` [Compound 234, 3-(((2R,3S)-2-hydroxy-3-(3-(methyl((4-methylthiazol-2-yl)methyl)carbamoyl)benzamido)-4-phenylbutylamino)methyl)-5-isopropylphenyl morpholine-4-carboxylate], on memapsin 2, the Ki is < 300 nM. For the same compound, the 50% inhibitory concentration (IC50) in test [1] was < 1000 nM.
In the case of `Cc1noc(CN(C)C(=O)c2cccc(C(=O)N[C@@H](Cc3ccccc3)[C@H](O)CNCc3cncc(C(C)C)c3)c2)n1` [Compound 235, N1-((2S,3R)-3-hydroxy-4-((5-isopropylpyridin-3-yl)methylamino)-1-phenylbutan-2-yl)-N3-methyl-N3-((3-methyl-1,2,4-oxadiazol-5-yl)methyl)isophthalamide], the Ki on memapsin 2 is < 300 nM. Further, the IC50 in test [1] (setting [2]) was < 1000 nM.
In the same order, the values of `Cc1csc(CN(C)C(=O)c2cccc(C(=O)N[C@@H](Cc3ccccc3)[C@H](O)CNCc3cc(Cl)cc(Cl)c3)c2)n1` [Compound 236, N1-((2S,3R)-4-(3,5-dichlorobenzylamino)-3-hydroxy-1-phenylbutan-2-yl)-N3-methyl-N3-((4-methylthiazol-2-yl)methyl)isophthalamide] are < 300 nM and < 1000 nM.
Consider `CC(=O)c1cc(C(=O)N[C@@H](Cc2ccccc2)[C@H](O)CNCc2cncc(C(C)C)c2)cc(C(=O)N(C)Cc2nc(C)cs2)c1` [Compound 237, 5-acetyl-N1-((2S,3R)-3-hydroxy-4-((5-isopropylpyridin-3-yl)methylamino)-1-phenylbutan-2-yl)-N3-methyl-N3-((4-methylthiazol-2-yl)methyl)isophthalamide], for which the Ki on memapsin 2 is < 300 nM. The IC50 in test [1] (setting [2]) is < 1000 nM.
In the same order, the values of `COc1cccc(CNC[C@@H](O)[C@H](Cc2ccccc2)NC(=O)c2cc(C(=O)N(C)Cc3nc(C)cs3)cc(-n3cccc3)c2)c1` [Compound 238, N1-((2S,3R)-3-hydroxy-4-(3-methoxybenzylamino)-1-phenylbutan-2-yl)-N3-methyl-N3-((4-methylthiazol-2-yl)methyl)-5-(1H-pyrrol-1-yl)isophthalamide] are < 300 nM and < 1000 nM.
Turning to `Cc1csc(CN(C)C(=O)c2cc(C(=O)N[C@@H](Cc3ccccc3)[C@H](O)CNCc3cncc(C(C)C)c3)cc(-n3cccc3)c2)n1` [Compound 239, N1-((2S,3R)-3-hydroxy-4-((5-isopropylpyridin-3-yl)methylamino)-1-phenylbutan-2-yl)-N3-methyl-N3-((4-methylthiazol-2-yl)methyl)-5-(1H-pyrrol-1-yl)isophthalamide], the Ki on memapsin 2 was < 300 nM. Besides, the half-inhibitory concentration (IC50) in test [1] (setting [2]) was < 1000 nM.
In the same order, the values of `Cc1nc(CN(C)C(=O)c2cccc(C(=O)N[C@@H](Cc3ccccc3)[C@H](O)CNCc3cncc(C(C)C)c3)c2)no1` [Compound 240, N1-((2S,3R)-3-hydroxy-4-((5-isopropylpyridin-3-yl)methylamino)-1-phenylbutan-2-yl)-N3-methyl-N3-((5-methyl-1,2,4-oxadiazol-3-yl)methyl)isophthalamide] are 301 to 500 nM and 1000 to 5000 nM.
In the case of `COc1cccc(CNC[C@@H](O)[C@H](Cc2ccccc2)NC(=O)c2cc(C(=O)N(C)Cc3nc(C)cs3)cc(N3CCC(O)C3)c2)c1` (stereo partly drawn) [Compound 241, N1-((2S,3R)-3-hydroxy-4-(3-methoxybenzylamino)-1-phenylbutan-2-yl)-5-(3-hydroxypyrrolidin-1-yl)-N3-methyl-N3-((4-methylthiazol-2-yl)methyl)isophthalamide], the Ki at memapsin 2 was < 300 nM. In test [1] (setting [2]), the 50% inhibitory concentration (IC50) lay within 1000 to 5000 nM.
Regarding `Cc1csc(CN(C)C(=O)c2cc(C(=O)N[C@@H](Cc3ccccc3)[C@H](O)CNCc3cncc(C(C)C)c3)cc(N3CCC(O)C3)c2)n1` (stereo partly drawn) [Compound 242, N1-((2S,3R)-3-hydroxy-4-((5-isopropylpyridin-3-yl)methylamino)-1-phenylbutan-2-yl)-5-(3-hydroxypyrrolidin-1-yl)-N3-methyl-N3-((4-methylthiazol-2-yl)methyl)isophthalamide], at memapsin 2, the Ki is < 300 nM. For the same compound, the IC50 in test [1] (setting [2]) was < 1000 nM.
In the same order, the values of `CC(=O)Oc1cc(CNC[C@@H](O)[C@H](Cc2ccccc2)NC(=O)c2cccc(C(=O)N(C)Cc3nc(C)cs3)c2)cc(C(C)C)c1` [Compound 243, 3-(((2R,3S)-2-hydroxy-3-(3-(methyl((4-methylthiazol-2-yl)methyl)carbamoyl)benzamido)-4-phenylbutylamino)methyl)-5-isopropylphenyl acetate] are < 300 nM and < 1000 nM.
On to `CC(=O)c1cc(C(=O)N[C@@H](Cc2ccccc2)[C@H](O)CNCc2cccc(C(F)(F)F)c2)cc(C(=O)N(C)Cc2nc(C)cs2)c1` [Compound 244, 5-acetyl-N1-((2S,3R)-3-hydroxy-1-phenyl-4-(3-(trifluoromethyl)benzylamino)butan-2-yl)-N3-methyl-N3-((4-methylthiazol-2-yl)methyl)isophthalamide], for which the Ki on memapsin 2 is < 300 nM. Besides, in test [1] (setting [2]), the IC50 is < 1000 nM.
In the same order, the values of `Cc1csc(CN(C)C(=O)c2cc(C(=O)N[C@@H](Cc3ccccc3)[C@H](O)CNCc3cncc(C(C)(F)F)c3)cc(C(F)F)c2)n1` [Compound 245, N1-((2S,3R)-4-((5-(1,1-difluoroethyl)pyridin-3-yl)methylamino)-3-hydroxy-1-phenylbutan-2-yl)-5-(difluoromethyl)-N3-methyl-N3-((4-methylthiazol-2-yl)methyl)isophthalamide] are < 300 nM and < 1000 nM.
The like results for `Cc1csc(CN(C)C(=O)c2cccc(C(=O)N[C@@H](Cc3ccccc3)[C@H](O)CNCc3cc(C#N)cc(C(C)C)c3)c2)n1` [Compound 248, N1-((2S,3R)-4-(3-cyano-5-isopropylbenzylamino)-3-hydroxy-1-phenylbutan-2-yl)-N3-methyl-N3-((4-methylthiazol-2-yl)methyl)isophthalamide] were, in that order, < 300 nM and < 1000 nM.
Turning to `Cc1csc(CN(C)C(=O)c2ccc(C)c(C(=O)N[C@@H](Cc3ccccc3)[C@H](O)CNCc3cncc(C(C)C)c3)c2)n1` [Compound 249, N3-((2S,3R)-3-hydroxy-4-((5-isopropylpyridin-3-yl)methylamino)-1-phenylbutan-2-yl)-N1,4-dimethyl-N1-((4-methylthiazol-2-yl)methyl)isophthalamide], the Ki at memapsin 2 was > 501 nM. For the same compound, the IC50 in test [1] (setting [2]) was > 5000 nM.
For `Cc1csc(CN(C)C(=O)c2cc(C(=O)N[C@@H](Cc3ccccc3)[C@H](O)CNCc3cncc(C(C)(C)F)c3)cc(-n3cccc3)c2)n1` [Compound 250, N1-((2S,3R)-4-((5-(2-fluoropropan-2-yl)pyridin-3-yl)methylamino)-3-hydroxy-1-phenylbutan-2-yl)-N3-methyl-N3-((4-methylthiazol-2-yl)methyl)-5-(1H-pyrrol-1-yl)isophthalamide], the Ki on memapsin 2 is < 300 nM. In test [1] (setting [2]), the IC50 was < 1000 nM.
Turning to `CNS(=O)(=O)c1cc(CNC[C@@H](O)[C@H](Cc2ccccc2)NC(=O)c2cccc(C(=O)N(C)Cc3nc(C)cs3)c2)cc(C(C)C)c1` [Compound 251, N1-((2S,3R)-3-hydroxy-4-(3-isopropyl-5-(N-methylsulfamoyl)benzylamino)-1-phenylbutan-2-yl)-N3-methyl-N3-((4-methylthiazol-2-yl)methyl)isophthalamide], on memapsin 2, the Ki was < 300 nM. Moreover, the IC50 in test [1] (setting [2]) is < 1000 nM.

For the origin of these results see patent US20100286145A1, “ISOPHTHALAMIDE DERIVATIVES INHIBITING BETA-SECRETASE ACTIVITY” (CoMentis, Inc., priority 2007, published 2010).
